pEC50: −log10 of the molar value. Where no end group is shown, it is not given here.
Experiments:
[1] = tested on: Huh-7.5 cells harboring SGR-JFH-1 Feo; experiment: MTT cytotoxicity in hepatocytes; type: cell-based, human; settings: for CC50 (50% cytotoxic concentration): 48 h incubation, SGR-Feo-JFH-1 Huh-7.5 cells, triplicate in three independent assays; for maximum non-toxic (safe) concentration in hepatocytes: arbitrary threshold of 80% cell viability, 48 h
Excerpt: (§1) Figure 2 Hecate and its derivative-peptide effects on subgenomic HCV genotype 2a replication and hepatotoxicity. (A) Hecate. (B) Lys- Hecate. (C) GA-Hecate. (D) GA2-Hecate. (E) Acetyl-Hecate. (F) Glu-Hecate. Luciferase assays report HCV replication and MTT assays report the viability of Huh-7.5 cells harboring SGR-JFH-1 Feo under peptide treatment. Water was used as a negative control of virus replication inhibition and cell death (Control (−)), and Cyclosporine A was used as a positive control for virus replication inhibition (Control (+)). Red dotted lines represent the arbitrary threshold of 80% cell viability, and blue dotted lines represent the maximum inhibition presented by Hecate at the maximum safe concentration. Bars represent triplicates of the three independent assays. ***P < 0.01 vs control (−).
Peptide cytotoxicity profiles were measured by the MTT [3-(4,5-dimethylthiazol- 2-yl)-2,5-diphenyl tetrazolium bromide] (Sigma–Aldrich) method. Twenty-four hours before treatment, 5 × 10^3 SGR-harboring cell lines (SGR-Feo-JFH-1 or S52/SG-neo) were cultured with supplemented DMEM in a 96-multi-well plate and incubated at 37 °C in a humidified 5% CO2 incubator. On the subsequent day, peptide-containing medium was added at the following final concentrations: 2.5, 5, 10 and 20 μM. The tested peptides were Hecate and its derivatives, which included the following: lysine addition (Lysine-Hecate/Lys-Hecate); one or two molecules of Gallic Acid (GA-Hecate and GA2-Hecate); one acetyl radical (Acetyl-Hecate) or Glutamic acid (Glu-Hecate). After 48 h of incubation, peptide-media was removed, and MTT at a final concentration of 1 mg/mL was added to the wells, incubated for 30 minutes and subsequently replaced by 100 μL of DMSO. Absorbance was measured at 562 nm, using a plate spectrophotometer (FLUOstar Omega/BMG LABTECH, Offenburg, BW, DE). Cell viability was calculated considering water-treated cells (peptides diluent) as a negative control. All experiments were performed in triplicate and in three independent replicates. Further assays were performed considering at least 80% viability of the treated cells.
(§2) GA-Hecate toxicity and viral inhibition profile in 24, 48 and 72h post-treatment in […]
(§3) GA-Hecate toxicity and viral inhibition capacity were evaluated at 24, 48 and 72h post-treatment. Tested concentrations were 1.25; 2.5; 5; 10; 20; and 40 µM. At the end of every incubation, cells were stained using MTT as previously described. Similarly, at every time point, treated cells were lysed using PLB and summited to Luminescence analysis as previously described. […]

[2] = tested on: HCV subgenomic replicon SGR-Feo-JFH-1 (genotype 2a); experiment: HCV subgenomic replicon replication, luciferase assay (genotype 2a); type: cell-based, hepatitis C virus; settings: for SI (selectivity index), ratio CC50/EC50 / inhibition of HCV replication at the maximum safe concentration: 48 h, genotype 2a replicon; for pEC50: Huh-7.5 harbouring SGR-Feo-JFH-1 genotype 2a, 48 h treatment, 2.5-20 μM, luciferase, triplicate in three independent assays, read-out: EC50 (50% effective concentration for HCV); for inhibition of HCV replication at the maximum safe concentration: at each peptide's maximum safe concentration (Hecate 10 μM; Lys-, Glu-, Acetyl-Hecate 5 μM)
Excerpt: as §1
Cell lines harboring subgenomic or genomic replicons were seeded at 5 × 10^3 cells /well on 96-well plates and the compounds were added 24 h post-seeding, in a concentration range between 2.5–20 μM. After 48 h of treatment, the cells were disrupted with 30 μL of passive lysis buffer (Promega, Madison, WI, USA), and luciferase substrate (Promega, Madison, WI, USA) was automatically added to each sample. Luciferase activity was measured using a luminometer (FLUOstar Omega/BMG LABTECH, Offenburg, BW, DE). The same assays were performed in Huh-7.5 cell lines harboring SGR-JFH1 Feo, S52/SG-neo or FL-J6/JFH-50C19Rluc2AUbi. Cyclosporine A (Sigma-Aldrich) at 1 μM was used as positive control of viral replication inhibition and dH2O as negative control.
as §2, §3

| Compound | CC50 (50% cytotoxic concentration) [1] | maximum non-toxic (safe) concentration in hepatocytes [1] | SI (selectivity index), ratio CC50/EC50 [2] | pEC50 [2] | inhibition of HCV replication at the maximum safe concentration [2] |
| --- | --- | --- | --- | --- | --- |
| CC(C)C[C@H](NC(=O)[C@H](C)NC(=O)[C@H](CCCCN)NC(=O)[C@H](CCCCN)NC(=O)[C@H](CC(C)C)NC(=O)[C@H](C)NC(=O)[C@H](CCCCN)NC(=O)[C@H](CCCCN)NC(=O)[C@H](CC(C)C)NC(=O)[C@H](CCCCN)NC(=O)[C@H](CCCCN)NC(=O)[C@H](CC(C)C)NC(=O)[C@H](C)NC(=O)[C@H](CCCCN)NC(=O)[C@H](CCCCN)NC(=O)[C@H](CC(C)C)NC(=O)[C@H](C)NC(=O)[C@H](CCCCN)NC(=O)[C@H](CC(C)C)NC(=O)[C@H](C)NC(=O)[C@H](CC(C)C)NC(=O)[C@H](C)NC(=O)[C@H](Cc1ccccc1)NC(=O)[C@@H](N)CCCCN)C(N)=O [Lys-Hecate] | 7.97 µM | 5 µM | 3.06 | 5.59 | – |
| H-EFALALKALKKALKKLKKALKKAL-NH2 [Glu-Hecate] | 9.12 µM | 5 µM | 2.76 | 5.48 | approximately 65% |
| FALALKALKKALKKLKKALKKAL-NH2 [Hecate] | 12.17 µM | 10 µM | 1.42 | 5.07 | – |
| Ac-FALALKALKKALKKLKKALKKAL-NH2 [Acetyl-Hecate] | 9.43 µM | 5 µM | – | 5.42 | approximately 65% |

Source: publication PMC6156508, “GA-Hecate antiviral properties on HCV whole cycle represent a new antiviral class and open the door for the development of broad spectrum antivirals” (Scientific Reports, 2018)
